{"source": "patent US7176224B2", "about": "“Oxazolyl-aryloxyacetic acid derivatives and their use as PPAR agonists” (Eli Lilly and Company, priority 2000, dated 2007)", "system": "db/db mice", "assay": "Evaluation of glucose levels in db/db mice", "type": "in vivo", "conditions": "30 mg/kg oral gavage daily for 7 days; 100% = glucose not differing from lean values", "description": "Five week old male diabetic (db/db) mice [C57BlKs/j-m +/+ Lepr(db), Jackson Laboratory, Bar Harbor, Me.] or lean littermates (DB/?) were housed 6 per cage (10″20″8″ with aspen chip bedding) with food (Purina 5015) and water available at all times. After an acclimation period of 2 weeks, animals were individually identified by ear notches, weighed, and bled via the tail vein for determination of initial glucose levels. Blood was collected (100 μl) from unfasted animals by wrapping each mouse in a towel, cutting the tip of the tail with a scalpel, and milking blood from the tail into a heparinized capillary tube (Fisher) balanced on the edge of the bench. Sample was discharged into a heparinized microtainer with gel separator (VWR) and retained on ice. Plasma was obtained after centrifugation at 4° C. and glucose measured immediately. Remaining plasma was frozen until the completion of the experiment, when glucose and triglycerides were assayed in all samples. […]\nGlucose was measured colorimetrically using commercially purchased reagents (Sigma #315-500). […] The absorbance of the dye produced is linearly related to the analyte in the sample. […] Standards (Sigma #339-11, Sigma #16-11, and Sigma #CC0534 for glucose, triglycerides and total cholesterol, respectively), quality control plasma (Sigma # A2034), and samples (2 or 5 μl/well) were measured in duplicate using 200 μl of reagent. […]", "data": [{"smiles": "Cc1oc(-c2cccc(-c3ccc(F)cc3)c2)nc1CCOc1ccc(CC(C)(Oc2ccccc2)C(=O)O)cc1", "note": "(stereo not shown) [Example 4, 3-(4-{2-[2-(4′-Fluorobiphenyl-3-yl)-5-methyloxazol-4-yl]ethoxy}phenyl)-2-methyl-2-phenoxypropionic acid]", "values": [{"measurement": "Glucose Normalisation", "result": 91, "unit": "%"}]}]}
